This note sets out measurements from patent US20240016850A1, “CELL-NANOPARTICLE DRUG DELIVERY SYSTEM AND USE OF THE SAME FOR INHIBITING GROWTH OF TUMOR CELLS AND DIAGNOSING TUMOR CELLS” (priority 2022, published 2024).

Each structure is given as a SMILES string.

Series [1] is described as follows: Gd3+ release from gadodiamide and Gd-FPFNP (dialysis, Xylenol orange). It counts as physicochemical. The settings on record: 24th hour; 1.05 mM gadodiamide; PBS, 37° C. How it is done:
In order to monitor the in vitro release of gadolinium(III) ions (Gd^3+) from gadodiamide and Gd-FPFNP, a respective one of gadodiamide at concentration of 1.05 mM and Gd-FPFNP that was loaded with 1.05 mM of gadodiamide were incubated in DMEM, and then added into a dialysis tube with cellulose membrane having a molecular weight cutoff of 1 kDa, followed by immersing the dialysis tube in 10 mL of PBS and stirring at 37° C. Thereafter, 0.5 mL aliquots of the PBS were taken out at the 3rd hour and 24th hour of stirring, followed by addition of Xylenol orange agent and analysis using a UV-Vis detector conducted according to procedures described by Barge A. et al., in an article entitled “How to determine free Gd and free ligand in solution of Gd chelates. A technical note.” published in Contrast Media Mol. Imaging, 2006, Vol. 1, p. 184-188, so as to determine the amount of Gd^3+ released in vitro.

Series [2] can be described thus: Biodistribution in vital organs with different treatment regimens (ICP-MS). It counts as in vivo, rat. The following applies: 24th hour post-administration. From the text:
In order to determine the differences in biodistribution of the cell-nanoparticle drug delivery system with those of gadodiamide and Gd-FPFNP in vital organs, the orthotopic GBM-bearing rats prepared in section B above were divided into 4 groups, namely, comparative groups 1 and 2 (CG1 and CG2), and experimental groups 1 and 2 (EG1 and EG2), with n=4 per each group. […] At the 24th hour post-administration, the orthotopic GBM-bearing rats in each group were sacrificed, and the blood and tissues from the heart, liver, spleen, lung, kidney, intestine, left brain and right brain were subjected to the pre-processing steps as described in section E above, and then subjected to quantification of elemental gadolinium (Gd) content by ICP-MS system as described in Item 5 of section B in Example 1. The results were expressed as percentage of administered (injected) dose per gram tissue (ID/g), calculated using the aforesaid formula (3), and shown in FIG. 16.

For `CNC(=O)CN(CCN(CCN(CC(=O)[O-])CC(=O)NC)CC(=O)[O-])CC(=O)[O-].[Gd+3]` [gadodiamide, Gadodiamide], the “concentration of Gd3+ released” value in series [1] stood at 38.6 µM. Moreover, the “elemental gadolinium in vital organs” value in series [2] is listed as “not or hardly detected”.
